Laboratory results taken from PMC6374431, “NMR Analysis on Molecular Interaction of Lignin with Amino Acid Residues of Carbohydrate-Binding Module from Trichoderma reesei Cel7A” (Scientific Reports, 2019).

Target: T1, TrCBM1 (CBM1 of TrCel7A, cellobiohydrolase I) (Trichoderma reesei, UniProt P62694)
T1 construct: gene cbh1; isolated C-terminal family 1 CBM (36 residues) plus residual residues at N- and C-termini from enterokinase and thrombin cleavage; His tag and GFP removed; E. coli BL21(DE3); 15N-labeled, mass 5255
T1 sequence (P62694 478-513): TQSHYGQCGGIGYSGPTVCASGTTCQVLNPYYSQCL
Assay: NMR titration, chemical shift perturbation (1H-15N SOFAST-HMQC)
Assay type: binding
Details: 100 μM 15N-TrCBM1, 100 mM citric acid buffer pH 5.0, 10% D2O, 298 K; cellohexaose 700-5600 μM; flat plane surface and cleft

OC[C@H]1O[C@@H](O[C@H]2[C@H](O)[C@@H](O)[C@H](O[C@H]3[C@H](O)[C@@H](O)[C@H](O[C@H]4[C@H](O)[C@@H](O)[C@H](O[C@H]5[C@H](O)[C@@H](O)[C@H](O[C@H]6[C@H](O)[C@@H](O)C(O)O[C@@H]6CO)O[C@@H]5CO)O[C@@H]4CO)O[C@@H]3CO)O[C@@H]2CO)[C@H](O)[C@@H](O)[C@@H]1O (stereo partly shown) [cellohexaose]
Δδ (CSP): The incremental addition of cellohexaose continuously increased Δδ.
